Data as given in the supplement of paper PMC10307832.

Experiments:
Experiment in all cases: relative viability (nuclei count vs DMSO), 5 days (fraction); higher = more cells survive
ABC-1 = system: ABC-1
Procedure, shortened: (§1)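 Cells from lung cancer lines were seeded into 1536-well plates and, one day later, dosed by pin tool. Treatments were either a single drug or a fixed dose of an anchor drug with five library-drug doses (not always all listed) in √10 steps. After 5 days, nuclei were stained in a one-step fixation (final 0.05% Triton X-100, 1% formaldehyde, 1 ug/ml Hoechst) and counted on 4× images, and relative viability is the treated-to-vehicle nuclei ratio, as the median of duplicate plates.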

CAL-12T = system: CAL-12T
Procedure, shortened: as §1

COR-L 105 = system: COR-L 105
Procedure, shortened: as §1

ChaGo-K-1 = system: ChaGo-K-1
Procedure, shortened: as §1

EMC-BAC-2 = system: EMC-BAC-2
Procedure, shortened: as §1

EPLC-272H = system: EPLC-272H
Procedure, shortened: as §1

HCC-15 = system: HCC-15
Procedure, shortened: as §1

HCC-78 = system: HCC-78
Procedure, shortened: as §1

HOP-62 = system: HOP-62
Procedure, shortened: as §1

LXF-289 = system: LXF-289
Procedure, shortened: as §1

NCI-H1666 = system: NCI-H1666
Procedure, shortened: as §1

NCI-H1755 = system: NCI-H1755
Procedure, shortened: as §1

NCI-H1915 = system: NCI-H1915
Procedure, shortened: as §1

NCI-H1975 = system: NCI-H1975
Procedure, shortened: as §1

NCI-H2023 = system: NCI-H2023
Procedure, shortened: as §1

NCI-H2085 = system: NCI-H2085
Procedure, shortened: as §1

NCI-H2126 = system: NCI-H2126
Procedure, shortened: as §1

NCI-H3122 = system: NCI-H3122
Procedure, shortened: as §1

NCI-H322M = system: NCI-H322M
Procedure, shortened: as §1

NCI-H358 = system: NCI-H358
Procedure, shortened: as §1

NCI-H441 = system: NCI-H441
Procedure, shortened: as §1

UMC-11 = system: UMC-11
Procedure, shortened: as §1

Question: For `O=c1cc(-c2cccc3c2Sc2ccccc2S3)oc(N2CCOCC2)c1` + Cc1nc(Nc2ncc(C(=O)Nc3c(C)cccc3Cl)s2)cc(N2CCN(CCO)CC2)n1 [Dasatinib] (partner 0.075 µM), which relative viability (ABC-1; first compound 0.08 µM) is on record?
Answer: 0.604

Question: What about the relative viability (ABC-1; first compound 0.253 µM) of the same molecule?
Answer: 0.651

Question: What about the relative viability (ABC-1; first compound 0.8 µM) of the same molecule?
Answer: 0.531

Question: What about the relative viability (ABC-1; first compound 2.53 µM) of the same molecule?
Answer: 0.492

Question: And the relative viability (ABC-1; first compound 8 µM)?
Answer: 0.653

Question: And the relative viability (CAL-12T; first compound 0.08 µM)?
Answer: 0.339

Question: And the relative viability (CAL-12T; first compound 0.253 µM)?
Answer: 0.415

Question: And the relative viability (CAL-12T; first compound 0.8 µM)?
Answer: 0.298

Question: And the relative viability (CAL-12T; first compound 2.53 µM)?
Answer: 0.34

Question: What about the relative viability (CAL-12T; first compound 8 µM) of the same molecule?
Answer: 0.27

Question: What about the relative viability (COR-L 105; first compound 0.08 µM) of the same molecule?
Answer: 0.311

Question: And the relative viability (COR-L 105; first compound 0.253 µM)?
Answer: 0.311

Question: And the relative viability (COR-L 105; first compound 0.8 µM)?
Answer: 0.326

Question: And the relative viability (COR-L 105; first compound 2.53 µM)?
Answer: 0.356

Question: And the relative viability (COR-L 105; first compound 8 µM)?
Answer: 0.31

Question: And the relative viability (ChaGo-K-1; first compound 0.08 µM)?
Answer: 0.499

Question: What about the relative viability (ChaGo-K-1; first compound 0.253 µM) of the same molecule?
Answer: 0.568

Question: What about the relative viability (ChaGo-K-1; first compound 0.8 µM) of the same molecule?
Answer: 0.585

Question: And the relative viability (ChaGo-K-1; first compound 2.53 µM)?
Answer: 0.454

Question: And the relative viability (ChaGo-K-1; first compound 8 µM)?
Answer: 0.674

Question: And the relative viability (EMC-BAC-2; first compound 0.08 µM)?
Answer: 0.252

Question: And the relative viability (EMC-BAC-2; first compound 0.253 µM)?
Answer: 0.368

Question: And the relative viability (EMC-BAC-2; first compound 0.8 µM)?
Answer: 0.306

Question: What about the relative viability (EMC-BAC-2; first compound 2.53 µM) of the same molecule?
Answer: 0.303

Question: And the relative viability (EMC-BAC-2; first compound 8 µM)?
Answer: 0.399

Question: And the relative viability (EPLC-272H; first compound 0.08 µM)?
Answer: 0.331

Question: What about the relative viability (EPLC-272H; first compound 0.253 µM) of the same molecule?
Answer: 0.397

Question: And the relative viability (EPLC-272H; first compound 0.8 µM)?
Answer: 0.399

Question: And the relative viability (EPLC-272H; first compound 2.53 µM)?
Answer: 0.306

Question: And the relative viability (EPLC-272H; first compound 8 µM)?
Answer: 0.347

Question: And the relative viability (HCC-15; first compound 0.08 µM)?
Answer: 0.606

Question: And the relative viability (HCC-15; first compound 0.253 µM)?
Answer: 0.733

Question: And the relative viability (HCC-15; first compound 0.8 µM)?
Answer: 0.546

Question: What about the relative viability (HCC-15; first compound 2.53 µM) of the same molecule?
Answer: 0.563

Question: And the relative viability (HCC-15; first compound 8 µM)?
Answer: 0.659

Question: And the relative viability (HCC-78; first compound 0.08 µM)?
Answer: 0.395

Question: What about the relative viability (HCC-78; first compound 0.253 µM) of the same molecule?
Answer: 0.553

Question: What about the relative viability (HCC-78; first compound 0.8 µM) of the same molecule?
Answer: 0.284

Question: What about the relative viability (HCC-78; first compound 2.53 µM) of the same molecule?
Answer: 0.329

Question: What about the relative viability (HCC-78; first compound 8 µM) of the same molecule?
Answer: 0.389

Question: What about the relative viability (HOP-62; first compound 0.08 µM) of the same molecule?
Answer: 0.615

Question: And the relative viability (HOP-62; first compound 0.253 µM)?
Answer: 0.835

Question: What about the relative viability (HOP-62; first compound 0.8 µM) of the same molecule?
Answer: 0.679

Question: What about the relative viability (HOP-62; first compound 2.53 µM) of the same molecule?
Answer: 0.562

Question: And the relative viability (HOP-62; first compound 8 µM)?
Answer: 0.543

Question: And the relative viability (LXF-289; first compound 0.08 µM)?
Answer: 0.219

Question: What about the relative viability (LXF-289; first compound 0.253 µM) of the same molecule?
Answer: 0.21

Question: And the relative viability (LXF-289; first compound 0.8 µM)?
Answer: 0.226

Question: And the relative viability (LXF-289; first compound 2.53 µM)?
Answer: 0.239

Question: And the relative viability (LXF-289; first compound 8 µM)?
Answer: 0.224

Question: What about the relative viability (NCI-H1666; first compound 0.08 µM) of the same molecule?
Answer: 0.787

Question: What about the relative viability (NCI-H1666; first compound 0.253 µM) of the same molecule?
Answer: 0.781

Question: And the relative viability (NCI-H1666; first compound 0.8 µM)?
Answer: 0.851

Question: What about the relative viability (NCI-H1666; first compound 2.53 µM) of the same molecule?
Answer: 0.768

Question: And the relative viability (NCI-H1666; first compound 8 µM)?
Answer: 0.789

Question: What about the relative viability (NCI-H1755; first compound 0.08 µM) of the same molecule?
Answer: 0.434

Question: And the relative viability (NCI-H1755; first compound 0.253 µM)?
Answer: 0.44

Question: And the relative viability (NCI-H1755; first compound 0.8 µM)?
Answer: 0.416

Question: And the relative viability (NCI-H1755; first compound 2.53 µM)?
Answer: 0.324

Question: And the relative viability (NCI-H1755; first compound 8 µM)?
Answer: 0.381

Question: What about the relative viability (NCI-H1915; first compound 0.08 µM) of the same molecule?
Answer: 0.296

Question: And the relative viability (NCI-H1915; first compound 0.253 µM)?
Answer: 0.351

Question: What about the relative viability (NCI-H1915; first compound 0.8 µM) of the same molecule?
Answer: 0.309

Question: What about the relative viability (NCI-H1915; first compound 2.53 µM) of the same molecule?
Answer: 0.306

Question: What about the relative viability (NCI-H1915; first compound 8 µM) of the same molecule?
Answer: 0.337

Question: And the relative viability (NCI-H1975; first compound 0.08 µM)?
Answer: 0.355

Question: And the relative viability (NCI-H1975; first compound 0.253 µM)?
Answer: 0.35

Question: What about the relative viability (NCI-H1975; first compound 0.8 µM) of the same molecule?
Answer: 0.219

Question: What about the relative viability (NCI-H1975; first compound 2.53 µM) of the same molecule?
Answer: 0.239

Question: And the relative viability (NCI-H1975; first compound 8 µM)?
Answer: 0.326

Question: What about the relative viability (NCI-H2023; first compound 0.08 µM) of the same molecule?
Answer: 0.537

Question: And the relative viability (NCI-H2023; first compound 0.253 µM)?
Answer: 0.679

Question: What about the relative viability (NCI-H2023; first compound 0.8 µM) of the same molecule?
Answer: 0.498

Question: And the relative viability (NCI-H2023; first compound 2.53 µM)?
Answer: 0.48

Question: What about the relative viability (NCI-H2023; first compound 8 µM) of the same molecule?
Answer: 0.405

Question: What about the relative viability (NCI-H2085; first compound 0.08 µM) of the same molecule?
Answer: 0.222

Question: And the relative viability (NCI-H2085; first compound 0.253 µM)?
Answer: 0.238

Question: And the relative viability (NCI-H2085; first compound 0.8 µM)?
Answer: 0.225

Question: And the relative viability (NCI-H2085; first compound 2.53 µM)?
Answer: 0.241

Question: And the relative viability (NCI-H2085; first compound 8 µM)?
Answer: 0.236

Question: What about the relative viability (NCI-H2126; first compound 0.08 µM) of the same molecule?
Answer: 0.59

Question: And the relative viability (NCI-H2126; first compound 0.253 µM)?
Answer: 0.456

Question: What about the relative viability (NCI-H2126; first compound 0.8 µM) of the same molecule?
Answer: 0.43

Question: And the relative viability (NCI-H2126; first compound 2.53 µM)?
Answer: 0.534

Question: And the relative viability (NCI-H2126; first compound 8 µM)?
Answer: 0.495

Question: What about the relative viability (NCI-H3122; first compound 0.08 µM) of the same molecule?
Answer: 0.79

Question: What about the relative viability (NCI-H3122; first compound 0.253 µM) of the same molecule?
Answer: 0.787

Question: What about the relative viability (NCI-H3122; first compound 0.8 µM) of the same molecule?
Answer: 0.784

Question: What about the relative viability (NCI-H3122; first compound 2.53 µM) of the same molecule?
Answer: 0.828

Question: What about the relative viability (NCI-H3122; first compound 8 µM) of the same molecule?
Answer: 0.929

Question: And the relative viability (NCI-H322M; first compound 0.08 µM)?
Answer: 0.251

Question: And the relative viability (NCI-H322M; first compound 0.253 µM)?
Answer: 0.262

Question: What about the relative viability (NCI-H322M; first compound 0.8 µM) of the same molecule?
Answer: 0.249

Question: And the relative viability (NCI-H322M; first compound 2.53 µM)?
Answer: 0.253

Question: And the relative viability (NCI-H322M; first compound 8 µM)?
Answer: 0.279

Question: What about the relative viability (NCI-H358; first compound 0.08 µM) of the same molecule?
Answer: 0.145

Question: What about the relative viability (NCI-H358; first compound 0.253 µM) of the same molecule?
Answer: 0.163

Question: And the relative viability (NCI-H358; first compound 0.8 µM)?
Answer: 0.148

Question: What about the relative viability (NCI-H358; first compound 2.53 µM) of the same molecule?
Answer: 0.152

Question: What about the relative viability (NCI-H358; first compound 8 µM) of the same molecule?
Answer: 0.189

Question: What about the relative viability (NCI-H441; first compound 0.08 µM) of the same molecule?
Answer: 0.599

Question: What about the relative viability (NCI-H441; first compound 0.253 µM) of the same molecule?
Answer: 0.586

Question: And the relative viability (NCI-H441; first compound 0.8 µM)?
Answer: 0.7

Question: And the relative viability (NCI-H441; first compound 2.53 µM)?
Answer: 0.502

Question: What about the relative viability (NCI-H441; first compound 8 µM) of the same molecule?
Answer: 0.658

Question: What about the relative viability (UMC-11; first compound 0.08 µM) of the same molecule?
Answer: 0.537

Question: And the relative viability (UMC-11; first compound 0.253 µM)?
Answer: 0.591

Question: What about the relative viability (UMC-11; first compound 0.8 µM) of the same molecule?
Answer: 0.535

Question: And the relative viability (UMC-11; first compound 2.53 µM)?
Answer: 0.433

Question: And the relative viability (UMC-11; first compound 8 µM)?
Answer: 0.752
